# From ChEMBL document CHEMBL3885881, “DrugMatrix”
# Organism: Rattus norvegicus
# Format: toxicity, organism-based, Sprague-Dawley
# Conditions: in vivo, po, route oral GAVAGE, vehicle 100 % SALINE; for ABSOLUTE EOSINOPHIL / ABSOLUTE LYMPHOCYTE / ABSOLUTE MONOCYTE / ABSOLUTE SEGMENTED NEUTROPHIL / BASOPHIL / EOSINOPHIL / ERYTHROCYTE COUNT / HEMATOCRIT / HEMOGLOBIN / LEUKOCYTE COUNT / LYMPHOCYTE / MEAN CORPUSCULAR HEMOGLOBIN / MEAN CORPUSCULAR HEMOGLOBIN CONCENTRATION / MEAN CORPUSCULAR VOLUME / MONOCYTE / NEUTROPHIL / NUCLEATED RED BLOOD CELLS / PLATELET COUNT: tissue Blood; for ALANINE AMINOTRANSFERASE / ALBUMIN / ALKALINE PHOSPHATASE / ASPARTATE AMINOTRANSFERASE / BLOOD UREA NITROGEN / CARBON DIOXIDE / CHLORIDE / CHOLESTEROL / CREATINE PHOSPHOKINASE / CREATININE / GLUCOSE / LACTATE DEHYDROGENASE / LIPASE / PHOSPHORUS / POTASSIUM / SODIUM / TOTAL BILIRUBIN / TOTAL PROTEIN / URIC ACID: tissue Plasma
# [1] = 10 mg/kg, 24 h, dose level Low, time 1 day
# [2] = 30 mg/kg, 6 h, dose level High, time 0.25 day
# [3] = 30 mg/kg, 24 h, dose level High, time 1 day
# Description: DrugMatrix - Regimen: Single
structure (smiles),measurement,setting,value
O=[As][O-].[Na+] [SODIUM ARSENITE],ABSOLUTE EOSINOPHIL,[1],15.17 CELLS/uL
same,ABSOLUTE LYMPHOCYTE,[1],9656.17 CELLS/uL
same,ABSOLUTE MONOCYTE,[1],190.33 CELLS/uL
same,ABSOLUTE SEGMENTED NEUTROPHIL,[1],505 CELLS/uL
same,BASOPHIL,[1],0%
same,EOSINOPHIL,[1],0.17%
same,ERYTHROCYTE COUNT,[1],4.96 x10E6/uL
same,HEMATOCRIT,[1],32.55%
same,HEMOGLOBIN,[1],12.85 G/DL
same,LEUKOCYTE COUNT,[1],10.37 x10E3/uL
same,LYMPHOCYTE,[1],93%
same,MEAN CORPUSCULAR HEMOGLOBIN,[1],25.92 pg
same,MEAN CORPUSCULAR HEMOGLOBIN CONCENTRATION,[1],39.47 G/DL
same,MEAN CORPUSCULAR VOLUME,[1],65.67 fL
same,MONOCYTE,[1],1.83%
same,NEUTROPHIL,[1],5%
same,NUCLEATED RED BLOOD CELLS,[1],0 /100WBC
same,PLATELET COUNT,[1],1030.17 x10E3/uL
same,ALANINE AMINOTRANSFERASE,[1],32.83 u/L
same,ALBUMIN,[1],4.12 G/DL
same,ALKALINE PHOSPHATASE,[1],249.5 u/L
same,ASPARTATE AMINOTRANSFERASE,[1],61.17 u/L
same,BLOOD UREA NITROGEN,[1],11 mg/dL
same,CARBON DIOXIDE,[1],31.17 mmol/L
same,CHLORIDE,[1],98.33 MEQ/L
same,CHOLESTEROL,[1],81.67 mg/dL
same,CREATINE PHOSPHOKINASE,[1],185.5 u/L
same,CREATININE,[1],0.18 mg/dL
same,GLUCOSE,[1],153.5 mg/dL
same,LACTATE DEHYDROGENASE,[1],58.67 u/L
same,LIPASE,[1],9.83 u/L
same,PHOSPHORUS,[1],10.27 mg/dL
same,POTASSIUM,[1],5.57 MEQ/L
same,SODIUM,[1],143.25 MEQ/L
same,TOTAL BILIRUBIN,[1],0.13 mg/dL
same,TOTAL PROTEIN,[1],5.97 G/DL
same,URIC ACID,[1],0.45 mg/dL
same,ABSOLUTE EOSINOPHIL,[2],50 CELLS/uL
same,ABSOLUTE LYMPHOCYTE,[2],13297 CELLS/uL
same,ABSOLUTE MONOCYTE,[2],256.33 CELLS/uL
same,ABSOLUTE SEGMENTED NEUTROPHIL,[2],2130 CELLS/uL
same,BASOPHIL,[2],0%
same,EOSINOPHIL,[2],0.33%
same,ERYTHROCYTE COUNT,[2],5.91 x10E6/uL
same,HEMATOCRIT,[2],39.97%
same,HEMOGLOBIN,[2],14.47 G/DL
same,LEUKOCYTE COUNT,[2],15.73 x10E3/uL
same,LYMPHOCYTE,[2],84.67%
same,MEAN CORPUSCULAR HEMOGLOBIN,[2],24.55 pg
same,MEAN CORPUSCULAR HEMOGLOBIN CONCENTRATION,[2],36.2 G/DL
same,MEAN CORPUSCULAR VOLUME,[2],67.78 fL
same,MONOCYTE,[2],1.67%
same,NEUTROPHIL,[2],13.33%
same,NUCLEATED RED BLOOD CELLS,[2],0 /100WBC
same,PLATELET COUNT,[2],1100.5 x10E3/uL
same,ALANINE AMINOTRANSFERASE,[2],96.5 u/L
same,ALBUMIN,[2],4.35 G/DL
same,ALKALINE PHOSPHATASE,[2],225.33 u/L
same,ASPARTATE AMINOTRANSFERASE,[2],192.17 u/L
same,BLOOD UREA NITROGEN,[2],19.33 mg/dL
same,CARBON DIOXIDE,[2],17.5 mmol/L
same,CHLORIDE,[2],99.67 MEQ/L
same,CHOLESTEROL,[2],64.33 mg/dL
same,CREATINE PHOSPHOKINASE,[2],1132 u/L
same,CREATININE,[2],0.23 mg/dL
same,GLUCOSE,[2],205 mg/dL
same,LACTATE DEHYDROGENASE,[2],746.17 u/L
same,LIPASE,[2],8.17 u/L
same,PHOSPHORUS,[2],16.53 mg/dL
same,POTASSIUM,[2],6.95 MEQ/L
same,SODIUM,[2],140.37 MEQ/L
same,TOTAL BILIRUBIN,[2],0.2 mg/dL
same,TOTAL PROTEIN,[2],5.83 G/DL
same,URIC ACID,[2],4.12 mg/dL
same,ABSOLUTE EOSINOPHIL,[3],0 CELLS/uL
same,ABSOLUTE LYMPHOCYTE,[3],12176.83 CELLS/uL
same,ABSOLUTE MONOCYTE,[3],320 CELLS/uL
same,ABSOLUTE SEGMENTED NEUTROPHIL,[3],353.17 CELLS/uL
same,BASOPHIL,[3],0%
same,EOSINOPHIL,[3],0%
same,ERYTHROCYTE COUNT,[3],5.64 x10E6/uL
same,HEMATOCRIT,[3],36.4%
same,HEMOGLOBIN,[3],14.38 G/DL
same,LEUKOCYTE COUNT,[3],12.85 x10E3/uL
same,LYMPHOCYTE,[3],94.83%
same,MEAN CORPUSCULAR HEMOGLOBIN,[3],25.55 pg
same,MEAN CORPUSCULAR HEMOGLOBIN CONCENTRATION,[3],39.53 G/DL
same,MEAN CORPUSCULAR VOLUME,[3],64.63 fL
same,MONOCYTE,[3],2.33%
same,NEUTROPHIL,[3],2.83%
same,NUCLEATED RED BLOOD CELLS,[3],0.17 /100WBC
same,PLATELET COUNT,[3],1165.33 x10E3/uL
same,ALANINE AMINOTRANSFERASE,[3],12.67 u/L
same,ALBUMIN,[3],3.88 G/DL
same,ALKALINE PHOSPHATASE,[3],235.5 u/L
same,ASPARTATE AMINOTRANSFERASE,[3],43.83 u/L
same,BLOOD UREA NITROGEN,[3],14.83 mg/dL
same,CARBON DIOXIDE,[3],30.67 mmol/L
same,CHLORIDE,[3],99.5 MEQ/L
same,CHOLESTEROL,[3],62.17 mg/dL
same,CREATINE PHOSPHOKINASE,[3],219.17 u/L
same,CREATININE,[3],0.2 mg/dL
same,GLUCOSE,[3],139.5 mg/dL
same,LACTATE DEHYDROGENASE,[3],82 u/L
same,LIPASE,[3],9 u/L
same,PHOSPHORUS,[3],10.38 mg/dL
same,POTASSIUM,[3],5.78 MEQ/L
same,SODIUM,[3],143.5 MEQ/L
same,TOTAL BILIRUBIN,[3],0.12 mg/dL
same,TOTAL PROTEIN,[3],5.75 G/DL
same,URIC ACID,[3],0.75 mg/dL
